Assay results published in patent US8193372B2, “Phosphothiophene and phosphothiazole HCV polymerase inhibitors” (Idenix Pharmaceuticals, Inc., priority 2009, dated 2012).

How the values were obtained:
[1] = tested on: HCV Con1 subgenomic replicon of genotype 1b (GS4.1 cells); assay: microbe, parasite or virus in culture; format: cell-based, HCV genotype 1b; settings: Hepatitis C virus; for EC50: 72 h
[2] = tested on: Huh-7-derived cell line (Zluc) that harbors an HCV genotype 1b replicon and a luciferase reporter gene; assay: microbe, parasite or virus in culture; format: cell-based; settings: Hepatitis C virus, 72 h
[3] = tested on: Huh-7-derived cell line (Zluc) that harbors an HCV genotype 1b replicon and a luciferase reporter gene; assay: microbe, parasite or virus in culture; format: cell-based; settings: Hepatitis C virus, 72 h; remark: listed apart in the source
[4] = in vitro; settings: human

SMILES	IC50 [1] [µM]	EC50 [1] [µM]	EC50 [2] [µM]	EC50 [3] [µM]	CC50 [4] [µM]
COP(=O)(Nc1cc(-c2ccc(-c3cc4ncccc4o3)cc2)sc1C(=O)O)c1ccc(C)cc1C (stereo not shown) [Compound 152]	< 0.1	< 0.1	< 0.1	< 0.1	> 8.3
COP(=O)(Nc1cc(-c2ccc(-c3cc4ccccc4s3)cc2)sc1C(=O)O)c1ccc(C)cc1C (stereo not shown) [Compound 153]	< 0.1	< 0.1	< 0.1	0.1 to 8.3	> 8.3
COP(=O)(Nc1cc(-c2ccc(Cl)cc2)sc1C(=O)O)c1ccc(C)cc1C (stereo not shown) [Compound 155]	< 0.1	0.1 to 8.3	0.1 to 8.3	> 8.3	> 8.3
COP(=O)(Nc1cc(-c2ccc(C(C)(C)C)cc2)sc1C(=O)O)c1ccc(C)cc1C (stereo not shown) [Compound 156]	0.1 to 8.3	0.1 to 8.3	0.1 to 8.3	> 8.3	> 8.3
CCOP(=O)(Nc1cc(-c2ccc(-c3cc4ncccc4o3)cc2)sc1C(=O)O)c1ccc(Cl)cc1F (stereo not shown) [Compound 160]	< 0.1	< 0.1	< 0.1	0.1 to 8.3	> 8.3
